Assay results taken from US7544204B2, “Control of halitosis-generating and other microorganisms in the non-dental upper respiratory tract” (Valam Corporation, priority 2003, dated 2009).
Like-named read-outs stand apart in the source and are kept apart here.

Key:
[1] = test system: Porphyromonas Gingivalis and Prevotella Intermedia; details: for bactericidal effect without light exposure: methylene blue 0.075% and 0.1%, no red halogen light
[2] = test system: Escherichia Coli; details: micromolar concentrations; gram negative (E. Coli); illuminated in light box; cited from earlier work
[3] = test system: P. gingivalis ATCC 33277; test: Lethal photosensitization of P. Gingivalis, colony count; type: cell-based, Porphyromonas Gingivalis
Description: • Suitable stain dosages for providing lethal sensitization of oral pathogens are determined in vitro by the following procedure. An objective is to determine the minimum duration of light exposure and minimum agent dilution required to achieve at least a 50% reduction in bacteria counts. Experimental tests are performed on two common pathogens using a continuously working, high intensity, red filtered halogen lamp. Red light from the filtered halogen lamp is transmitted through a flexible light guide to radiate downwardly onto petri dishes containing samples of live bacteria of species Porphyromonas Gingivalis and Prevotella Intermedia using the protocols described below. • Bacteria. Prevoltella Intermedia is isolated from patient sample material, identified in the laboratory using standard diagnostic test systems (Remel Inc., Lenexa, Kans., USA) and is maintained by twice-weekly subculture in thioglycollate medium (Becton Dickinson and Co, Sparks, Md., USA). P. gingivalis ATCC 33277 obtained from Remel Inc., is maintained by a twice-weekly subculture on CDC anaerobe blood agar (Becton Dickinson and Co, USA) and in thioglycollate medium (Becton Dickinson and Co, USA). • Light Source. […] The light output power density measured at 3 cm distance from the end of the light guide with filter is about 50 milliwatts/cm2. • Photosensitizer. […]

[4] = test system: Staphylococcus Aureus; details: micromolar concentrations; gram positive (Staph aureus); illuminated in light box; cited from earlier work
[5] = test system: Candida albicans; details: methylene blue 450 and 500 microgram/mL; diode laser 664 nm, 275 J/cm fiber length, 400 mW, 687.5 seconds; immunosuppressed murine model; cited from earlier work

Row | SMILES | killing with duration of red-filtered light exposure ([1]; 1, 5 and 10 min with methylene blue 0.05%, 5 and 10 min with methylene blue 0.025%) | reduction in bacteria counts ([1]; light 5 min with methylene blue 0.025%, light 1 min with methylene blue 0.05% and higher) | killing of bacteria without halogen light ([1]; methylene blue 0.001% or 0.025%, without halogen light) | bactericidal effect in combination with red-filtered high-intensity light ([1]; methylene blue 0.01% or higher, exposure less than 10 minutes, accumulated energy 30 J/cm^2, both species) | survival rate (bacterial colony count) ([1]; methylene blue 0.05% and higher, red light exposure 10 or 20 minutes) | reduction of bacteria, methylene blue alone ([1]; methylene blue 0.05%, without exposure to light) | bactericidal effect without light exposure [1] | bactericidal effect without light exposure ([1]; listed as Methylene blue) | bacterial cell death by phototoxicity [2] | bacterial killing without light exposure ([3]; methylene blue 0.01%, without light exposure, P.gingivalis culture) | bactericidal effect on P.gingivalis ([3]; methylene blue 0.1%) | bacterial cell death by phototoxicity [4] | eradication of Candida albicans [5]
1 | CN(C)c1ccc2nc3ccc(=[N+](C)C)cc-3sc2c1 [methylene blue] | statistically significant increased killing with duration | Significant reduction in bacteria counts | nor concentrations of methylene blue of 0.001% or 0.025%, without halogen light, appeared to be effective in killing bacteria | bactericidal effect | ≤ 50% | insignificant | significantly bactericidal | significant bactericidal effect | bacterial cell death | statistically significant bacterial killing | bactericidal effect | bacterial cell death | totally eradicate
2 | Cc1cc2nc3ccc(N(C)C)cc3[s+]c2cc1N.[Cl-] [toluidine blue O] |  |  |  |  |  |  |  |  | bacterial cell death |  |  | bacterial cell death | 
